Measured values from patent publication EP0816362A1, “THIAZOLE DERIVATIVES” (TAISHO PHARMACEUTICAL CO. LTD, priority 1995, dated 1996).

Experiments:
[1] = cited from earlier work
human D4.2 receptor = biological target: T1, human D4.2 receptor (Homo sapiens, UniProt P21917, DEL265-296); test: Dopamine D4 receptor binding experiment ([3H]-spiperone)
T1 sequence (P21917 with tags, fused parts or gaps DEL265-296): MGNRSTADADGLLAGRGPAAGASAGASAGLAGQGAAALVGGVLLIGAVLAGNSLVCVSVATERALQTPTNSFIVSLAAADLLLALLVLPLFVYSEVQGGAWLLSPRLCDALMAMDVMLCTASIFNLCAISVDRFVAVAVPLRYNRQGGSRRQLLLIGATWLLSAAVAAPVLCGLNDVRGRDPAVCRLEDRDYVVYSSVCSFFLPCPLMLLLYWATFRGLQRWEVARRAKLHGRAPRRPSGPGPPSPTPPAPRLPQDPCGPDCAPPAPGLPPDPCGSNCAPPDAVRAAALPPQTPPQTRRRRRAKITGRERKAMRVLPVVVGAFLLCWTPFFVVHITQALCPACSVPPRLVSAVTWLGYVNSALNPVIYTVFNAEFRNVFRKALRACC
Protocol: As a receptor preparation, Chinese hamster ovary (CHO) cell membranes where human D4.2 receptor was expressed were used.
As [^3H]-labeled ligand, [^3H]-spiperone was used.
Human D4.2 receptor binding test: CHO cell membranes where human D4.2 receptor was expressed, [^3H]-spiperone (0.5 nM) and a test drug were reacted at 27°C for 2 hours in 50 mM Tris-HCl buffer, pH 7.4 containing 5 mM EDTA, 1.5 mM calcium chloride, 5 mM potassium chloride and 120 mM sodium chloride.
After the reaction, the sample was filtered under suction through a glass filter (GF/B), and the radioactivity of the filter paper was determined in a liquid scintillation spectrometer.
The binding of [^3H]-spiperone in the presence of 10 µM haloperidol was assumed to be non-specific binding, and the difference between the total binding and the non-specific binding was assumed to be specific binding.

[2] = CHO cell membranes expressing human D4.2 receptor, [3H]-spiperone (0.5 nM), 27°C, 2 hours
[3] = inhibition of [3H]-spiperone binding, human D4.2 receptor

Compound	IC50 (human D4.2 receptor; [2]) [nM]	IC50 (human D4.2 receptor; [3]) [nM]	also measured
CN1CCN(C2=Nc3cc(Cl)ccc3Nc3ccccc32)CC1 [clozapine]			blood disorder ([1]; Summary and Clinical Data, Sandoz, Canada Inc. (1990), a case of death also reported): agranulocytosis; extrapyramidal disorder ([1]; clinical experiments, compared with dopamine D2 receptor antagonist): less extrapyramidal disorder
Cc1nc(-c2ccc(F)cc2)c(CCN2CCC(=Cc3ccc(Br)cc3)CC2)s1 [Compound L-25]		29.2	
Nc1nc(-c2ccccc2)c(CCN2CCC(=Cc3ccc(F)cc3)CC2)s1 [Compound L-07]		22.1	
O=C(c1ccccc1)C1CCN(CCc2scnc2-c2ccc(F)cc2)CC1 [Compound K-34]		20.1	
Cc1nc(-c2ccccc2)c(CCN2CCC(=Cc3ccc(F)cc3)CC2)s1 [Compound L-23]		3.13	

More lines, main results first:

IC50 (human D4.2 receptor; [2]) [nM]	IC50 (human D4.2 receptor; [3]) [nM]	Compound	also measured
4.13		Cc1nc(-c2ccc(F)cc2)c(C2CCN(CCCC(=O)c3ccc(F)cc3)C2)s1 (racemic) [Compound D-15]	
38.5		COc1ccc(C(=O)C2CCN(CCc3sc(C)nc3-c3ccc(F)cc3)CC2)cc1 [Compound K-22]	
97.7		Nc1nc(-c2ccc(F)cc2)c(C2CCN(CCCCc3noc4cc(F)ccc34)C2)s1 (stereo not shown) [Compound E-06]	
6.58		Nc1nc(-c2ccc(F)cc2)c(C2CCN(CCCC(=O)c3ccc(F)cc3)C2)s1 (single isomer, unassigned; (+)) [Compound F-05, (+)-2-amino-4-(4-fluorophenyl)-5-[1-[4-(4-fluorophenyl)-4-oxobutyl]pyrrolidin-3-yl]thiazole]	
	12.6	C=C(c1ccc(F)cc1)C1CCN(CCc2sc(C)nc2-c2ccc(F)cc2)CC1 [Compound K-32]	
	24.2	Nc1nc(-c2ccc(F)cc2)c(CCN2CCC(=Cc3cccc(C(F)(F)F)c3)CC2)s1 [Compound L-13]	
46.4		Nc1nc(-c2ccc(F)cc2)c(C2CCN(CCCN3C(=O)CCc4cc(F)ccc43)C2)s1 (stereo not shown) [Compound H-04]	
